# Assays:
# [1] = target: Sigma 2 receptor; experiment: Binding affinity of compound was measured towards Sigma receptor type 2 by using [3H]ditolylguanidine as radioligand; design: species or system Cavia porcellus
# [2] = target: T1, Sigma non-opioid intracellular receptor 1 (Homo sapiens, UniProt Q99720); experiment: Binding affinity for Sigma receptor type 1,using [3H](+)-pentazocine as radioligand
# [3] = target: T1, Sigma non-opioid intracellular receptor 1; experiment: Selectivity for sigma 2 compared to sigma 1 receptor
# [4] = Binding affinity for Sigma receptor type 1,using [3H](+)-pentazocine as radioligand
# T1 sequence (Q99720 whole entry): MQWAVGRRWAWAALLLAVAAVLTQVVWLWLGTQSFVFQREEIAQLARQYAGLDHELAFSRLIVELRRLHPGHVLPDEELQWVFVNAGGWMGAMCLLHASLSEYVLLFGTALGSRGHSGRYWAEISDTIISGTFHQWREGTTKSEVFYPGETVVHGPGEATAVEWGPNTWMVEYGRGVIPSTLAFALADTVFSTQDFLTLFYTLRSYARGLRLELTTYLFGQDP
SMILES,Ki [1],Ki [2],Selectivity [3],Selectivity ([3]; Cavia porcellus),Ki [4]
CCCC(C(=O)OCCN(CC)CC)(c1ccccc1)c1ccccc1 [PROADIFEN],1100 nM,,,,
CN1CCN(CC/C=C/c2ccccc2)CC1,1300 nM,29 nM,45,,
CN1CCN(CC/C=C\c2ccccc2)CC1,2540 nM,29 nM,88,,
CCN(CC)CCCCC(c1ccccc1)c1ccccc1,51 nM,1.4 nM,36,,
CN1CCN(CCCCc2ccccc2)CC1,900 nM,20 nM,45,,
CN(CCCC=C(c1ccccc1)c1ccccc1)CCc1ccccc1,41 nM,0.89 nM,46,,
CC1CCN(CCCCCc2ccccc2)CC1,,0.07 nM,,,
C(CCCNCCc1ccccc1)=C(c1ccccc1)c1ccccc1,142 nM,,,,
CCN(CC)CCOC(=O)C(O)(c1ccccc1)c1ccccc1 [BENACTYZINE],,> 1000 nM,,,
c1ccc(CCNCCCCC(c2ccccc2)c2ccccc2)cc1,100 nM,0.66 nM,,152,
CCN(CC)CCCCC(O)(c1ccccc1)c1ccccc1,800 nM,12 nM,67,,
CN(CCCCCc1ccccc1)CCc1ccccc1,,,,,0.25 nM

# Now from value to molecule:
Ki [1],Ki [2],Selectivity [3],Selectivity ([3]; Cavia porcellus),Ki [4],SMILES
28 nM,1.1 nM,25,,,CC1CCN(CCCC(c2ccccc2)c2ccccc2)CC1
32 nM,0.48 nM,67,,,CN(CCCCC(c1ccccc1)c1ccccc1)CCc1ccccc1
26 nM,0.8 nM,33,,,CC1CCN(CCC=C2c3ccccc3Sc3ccccc32)CC1
28 nM,1.9 nM,15,,,CC1CCN(CCC=C(c2ccccc2)c2ccccc2)CC1
17 nM,0.09 nM,189,,,CC1CCN(CCCCC(c2ccccc2)c2ccccc2)CC1
25 nM,,,,,CC1CCN(CCCC=C(c2ccccc2)c2ccccc2)CC1
